System: HIV-IIIb
Assay: Test A: Antiviral Assay in MT4 Cells
Format: cell-based, HIV-1
Conditions: for inhibition at 0.2 µM / inhibition at 2 µM: Human immunodeficiency virus 1, IIIB, MT4, 120 h; for inhibition at 0.2 µM: read-out: % inhibition at 0.2 μM; for inhibition at 2 µM: read-out: % inhibition at 2 μM; for Response at 0.2 μM: percent inhibition of virus-induced cell killing at 0.2 μM; for Response at 0.2 μM / Response at 2 μM: comparison with previously published compounds (WO 2013/006738); for Response at 2 μM: percent inhibition of virus-induced cell killing at 2 μM
Protocol: Test A: Antiviral Assay in MT4 Cells
MT-4 cells were next mixed with HIV-IIIb at an m.o.i of 0.003 for 1 hour, after which time 35 μL of virus/cell mixture (2000 cells) was immediately added to each well containing 40 μL of diluted compound. The plates were then incubated at 37° C. for 5 days. […] Cell lysis was carried out by incubating at room temperature for 10 min and then chemiluminescence was read.

SMILES | inhibition at 0.2 µM [%] | further results
O=C(Cn1nc(C(F)F)c2c1C(F)(F)CCC2(F)F)N[C@@H](Cc1cc(F)cc(F)c1)c1nc(-c2cnc3[nH]ccc3c2)ccc1-c1cnc2[nH]ccc2c1 [Compound 7, (S)—N-(1-(3,6-bis(1H-pyrrolo[2,3-b]pyridin-5-yl)pyridin-2-yl)-2-(3,5-difluorophenyl)ethyl)-2-(3-(difluoromethyl)-4,4,7,7-tetrafluoro-4,5,6,7-tetrahydro-1H-indazol-1-yl)acetamide] | 8 | 
NC(=O)c1ccc(-c2cnc3[nH]ccc3c2)c([C@H](Cc2cc(F)cc(F)c2)NC(=O)Cn2nc(C(F)F)c3c2C(F)(F)CCC3(F)F)n1 [Compound 1B, (S)-6-(1-(2-(3-(difluoromethyl)-4,4,7,7-tetrafluoro-4,5,6,7-tetrahydro-1H-indazol-1-yl)acetamido)-2-(3,5-difluorophenyl)ethyl)-5-(1H-pyrrolo[2,3-b]pyridin-5-yl)picolinamide] | 17 | 
Cn1nc(NS(C)(=O)=O)c2c(Cl)ccc(-c3ccc(C#CC(C)(O)C(F)F)nc3[C@H](Cc3cc(F)cc(F)c3)NC(=O)Cn3nc(C(F)F)c4c3C(F)(F)[C@@H]3C[C@H]43)c21 (stereo partly drawn) [Compound 169, N-((1S)-1-(3-(4-chloro-1-methyl-3-(methylsulfonamido)-1H-indazol-7-yl)-6-(4,4-difluoro-3-hydroxy-3-methylbut-1-yn-1-yl)pyridin-2-yl)-2-(3,5-difluorophenyl)ethyl)-2-((3b-S,4aR)-3-(difluoromethyl)-5,5-difluoro-3b,4,4a,5-tetrahydro-1H-cyclopropa[3,4]cyclopenta[1,2-c]pyrazol-1-yl)acetamide] | 92 | inhibition at 2 µM: 92%
CC(C)(O)C#Cc1ccc(-c2ccc3c(c2)C(=O)NC32CC2)c([C@H](Cc2cc(F)cc(F)c2)NC(=O)Cn2nc(C(F)(F)F)c3c2C(F)(F)[C@@H]2C[C@H]32)n1 [Compound 3D, 2-((3bS,4aR)-5,5-difluoro-3-(trifluoromethyl)-3b,4,4a,5-tetrahydro-1H-cyclopropa[3,4]cyclopenta[1,2-c]pyrazol-1-yl)-N—((S)-2-(3,5-difluorophenyl)-1-(6-(3-hydroxy-3-methylbut-1-yn-1-yl)-3-(3′-oxospiro[cyclopropane-1,1′-isoindolin]-5′-yl)pyridin-2-yl)ethyl)acetamide] | 82 | 
CC(C)(O)C#Cc1ccc(-c2cccc3c(=O)[nH]c(=O)[nH]c23)c([C@H](Cc2cc(F)cc(F)c2)NC(=O)Cn2nc(C(F)(F)F)c3c2C(F)(F)[C@@H]2C[C@H]32)n1 [Compound 17, 2-((3bS,4aR)-5,5-difluoro-3-(trifluoromethyl)-3b,4,4a,5-tetrahydro-1H-cyclopropa[3,4]cyclopenta[1,2-c]pyrazol-1-yl)-N—((S)-2-(3,5-difluorophenyl)-1-(3-(2,4-dioxo-1,2,3,4-tetrahydroquinazolin-8-yl)-6-(3-hydroxy-3-methylbut-1-ynyl)pyridin-2-yl)ethyl)acetamide] | 95 | 
O=C(Cn1nc(C(F)F)c2c1C(F)(F)CCC2(F)F)N[C@@H](Cc1cc(F)cc(F)c1)c1ncc(-c2ccc3c(c2)C(=O)NC3)cc1-c1ccc2c(c1)C(=O)NC2 [Compound 10B, (S)—N-(1-(3,5-bis(3-oxoisoindolin-5-yl)pyridin-2-yl)-2-(3,5-difluorophenyl)ethyl)-2-(3-(difluoromethyl)-4,4,7,7-tetrafluoro-4,5,6,7-tetrahydro-1H-indazol-1-yl)acetamide] | 1 | 
COc1cc(-c2ccc(-c3ccc4c(c3)C(=O)NC4)c([C@H](Cc3cc(F)cc(F)c3)NC(=O)Cn3nc(C(F)F)c4c3C(F)(F)CCC4(F)F)n2)ccn1 [Compound 8C, (S)-2-(3-(difluoromethyl)-4,4,7,7-tetrafluoro-4,5,6,7-tetrahydro-1H-indazol-1-yl)-N-(2-(3,5-difluorophenyl)-1-(2′-methoxy-5-(3-oxoisoindolin-5-yl)-[2,4′-bipyridin]-6-yl)ethyl)acetamide] | 6 | 
CC(C)(O)C#Cc1ccc(-c2cccc3c(=O)[nH]cnc23)c([C@H](Cc2cc(F)cc(F)c2)NC(=O)Cn2nc(C(F)(F)F)c3c2C(F)(F)[C@@H]2C[C@H]32)n1 [Compound 2, 2-((3bS,4aR)-5,5-difluoro-3-(trifluoromethyl)-3b,4,4a,5-tetrahydro-1H-cyclopropa[3,4]cyclopenta[1,2-c]pyrazol-1-yl)-N—((S)-2-(3,5-difluorophenyl)-1-(6-(3-hydroxy-3-methylbut-1-yn-1-yl)-3-(4-oxo-3,4-dihydroquinazolin-8-yl)pyridin-2-yl)ethyl)acetamide] | 79 | 
Cc1ccc(-c2ccc(C#CC(C)(C)O)nc2[C@H](Cc2cc(F)cc(F)c2)NC(=O)Cn2nc(C(F)F)c3c2C(F)(F)[C@@H]2C[C@H]32)c2c1c(NS(C)(=O)=O)nn2C [Compound 112D, 2-((3b-S,4aR)-3-(difluoromethyl)-5,5-difluoro-3b,4,4a,5-tetrahydro-1H-cyclopropa[3,4]cyclopenta[1,2-c]pyrazol-1-yl)-N—((S)-2-(3,5-difluorophenyl)-1-(3-(1,4-dimethyl-3-(methylsulfonamido)-1H-indazol-7-yl)-6-(3-hydroxy-3-methylbut-1-yn-1-yl)pyridin-2-yl)ethyl)acetamide] | 97 | inhibition at 2 µM: 97%
Cn1nc(NS(C)(=O)=O)c2c(Cl)ccc(-c3ccc(C#CC(C)(C)O)nc3[C@H](Cc3cc(F)cc(F)c3)NC(=O)Cn3nc(C(F)F)c4c3C(F)(F)[C@@H]3C[C@H]43)c21 [Compound 19G, (S)—N-(1-(3-(4 chloro-1-methyl-3-(methylsulfonamido)-1H-indazol-7-yl)-6-(3-hydroxy-3-methylbut-1-ynyl)pyridin-2-yl)-2-(3,5-difluorophenyl)ethyl)-2-((3bS,4aR)-5,5-difluoro-3-(difluoromethyl)-3b,4,4a,5-tetrahydro-1H-cyclopropa[3,4]cyclopenta[1,2-c]pyrazol-1-yl)acetamide] | 97 | inhibition at 2 µM: 93%
NC(=O)c1cc(-c2ccc(-c3ccc(F)c(C(N)=O)c3)c([C@H](Cc3cc(F)cc(F)c3)NC(=O)Cn3nc(C(F)F)c4c3C(F)(F)CCC4(F)F)n2)ccc1F [Compound 5G, (S)-5,5′-(6-(1-(2-(3 (difluoromethyl)-4,4,7,7-tetrafluoro-4,5,6,7-tetrahydro-1H-indazol-1-yl)acetamido)-2-(3,5-difluorophenyl)ethyl)pyridine-2,5-diyl)bis(2-fluorobenz amide)] |  | Response at 0.2 μM: 3%; Response at 2 μM: 58%
CC(C)(O)C#Cc1ccc(-c2cccc3c2CNC3=O)c([C@H](Cc2cc(F)cc(F)c2)NC(=O)Cn2nc(C(F)(F)F)c3c2C(F)(F)[C@@H]2C[C@H]32)n1 [Compound 15, 2-((3bS,4aR)-5,5-difluoro-3-(trifluoromethyl)-3b,4,4a,5-tetrahydro-1H-cyclopropa[3,4]cyclopenta[1,2-c]pyrazol-1-yl)-N—((S)-2-(3,5-difluorophenyl)-1-(6-(3-hydroxy-3-methylbut-1-yn-1-yl)-3-(1-oxoisoindolin-4-yl)pyridin-2-yl)ethyl)acetamide] |  | % inhibition at 2 μM (percent inhibition of virus-induced cell killing at 2 μM drug concentration, from dose response curve, MT-4 cells, HIV-IIIb, 5 days, values above 100 normalized to 100): 94%
CC(C)(O)C#Cc1ccc(-c2ccc3c(c2)C(=O)NC3)c([C@H](Cc2cc(F)cc(F)c2)NC(=O)Cn2nc(C(F)F)c3c2C(F)(F)CCC3(F)F)n1 [Compound 9B, (S)-2-(3-(difluoromethyl)-4,4,7,7-tetrafluoro-4,5,6,7-tetrahydro-1H-indazol-1-yl)-N-(2-(3,5-difluorophenyl)-1-(6-(3-hydroxy-3-methylbut-1-yn-1-yl)-3-(3-oxoisoindolin-5-yl)pyridin-2-yl)ethyl)acetamide] | 92 | 
O=C(Cn1nc(C(F)F)c2c1C(F)(F)CCC2(F)F)N[C@@H](Cc1cc(F)cc(F)c1)c1nc(-c2cc[nH]c(=O)c2)ccc1-c1ccc2c(c1)C(=O)NC2 [Compound 12, (S)-2-(3-(difluoromethyl)-4,4,7,7-tetrafluoro-4,5,6,7-tetrahydro-1H-indazol-1-yl)-N-(2-(3,5-difluorophenyl)-1-(2′-oxo-5-(3-oxoisoindolin-5-yl)-1′,2′-dihydro-[2,4′-bipyridin]-6-yl)ethyl)acetamide] | 1 | 
CC(C)(O)C#Cc1ccc(-c2ccc(F)c(C(N)=O)c2)c([C@H](Cc2cc(F)cc(F)c2)NC(=O)Cn2nc(C(F)(F)F)c3c2C(F)(F)[C@@H]2C[C@H]32)n1 [Compound 18, 5-(2-((S)-1-(2-((3bS,4aR)-5,5-difluoro-3-(trifluoromethyl)-3b,4,4a,5-tetrahydro-1H-cyclopropa[3,4]cyclopenta[1,2-c]pyrazol-1-yl)acetamido)-2-(3,5-difluorophenyl)ethyl)-6-(3-hydroxy-3-methylbut-1-yn-1-yl)pyridin-3-yl)-2-fluorobenzamide] |  | Response at 0.2 μM: 96%; Response at 2 μM: 90%
CC(C)(O)C#Cc1ccc(-c2cccc3c2CNC3=O)c([C@H](Cc2cc(F)cc(F)c2)NC(=O)Cn2nc(C(F)(F)F)c3c2C(F)(F)[C@@H]2C[C@H]32)n1 [Compound 14E, 2-((3bS,4aR)-5,5-difluoro-3-(trifluoromethyl)-3b,4,4a,5-tetrahydro-1H-cyclopropa[3,4]cyclopenta[1,2-c]pyrazol-1-yl)-N—((S)-2-(3,5-difluorophenyl)-1-(6-(3-hydroxy-3-methylbut-1-yn-1-yl)-3-(1-oxoisoindolin-4-yl)pyridin-2-yl)ethyl)acetamide] | 87 | 

— patent US20140303164A1, “THERAPEUTIC COMPOUNDS” (Gilead Sciences, Inc., priority 2013, published 2014)
